Laboratory results reported in ChEMBL document CHEMBL2086382, “From bradykinin B2 receptor antagonists to orally active and selective bradykinin B1 receptor antagonists” (J Med Chem, 2012).

Tests used:
Details in all cases: in vivo
[1] = Volume of distribution in Sprague-Dawley rat at 10 mg/kg, po and 1 mg/kg, iv; assay type: ADME, organism-based
[2] = Oral bioavailability in Sprague-Dawley rat at 10 mg/kg; assay type: ADME, organism-based
[3] = Oral bioavailability in Swiss mouse at 5 mg/kg; assay type: ADME, organism-based
[4] = Volume of distribution in Swiss mouse at 5 mg/kg, po and 1 mg/kg, iv; assay type: ADME, organism-based
[5] = Oral bioavailability in Beagle dog at 5 mg/kg; assay type: ADME, organism-based, Canis lupus familiaris
[6] = Volume of distribution in Beagle dog at 5 mg/kg, po and 1 mg/kg, iv; assay type: ADME, organism-based, Canis lupus familiaris

SMILES	Vd [1]	bioavailability [2]	bioavailability [3]	Vd [4]	bioavailability [5]	Vd [6]
COc1cc(C)c(S(=O)(=O)N(C)CCOCC(=O)N2CCC(C3CCN(C)CC3)CC2)c(C)c1	0.6 L/kg	12.3%	–	–	–	–
COc1cc(C)c(S(=O)(=O)N(C)CCOCC(=O)N2CCC(C(C)(C)CN(C)C)CC2)c(C)c1	0.5 L/kg	3.8%	–	–	–	–
COc1cc(C)c(S(=O)(=O)N(C)CCOCC(=O)N2CCN([C@@H]3CN4CCC3CC4)CC2)c(C)c1	–	–	6.7%	1 L/kg	–	–
CCN1CCC(N2CCN(C(=O)COCCN(C)S(=O)(=O)c3c(C)cc(OC)cc3C)CC2)CC1	3.8 L/kg	12%	–	–	–	–
COc1cc(C)c(S(=O)(=O)N(C)CCOCC(=O)N2CCC(N3CCN(C)CC3)CC2)c(C)c1	0.6 L/kg	6%	–	–	–	–
COc1cc(C)c(S(=O)(=O)N(C)CCOCC(=O)N2CCN(C3CCN(C)CC3)CC2)c(C)c1	1.5 L/kg	18%	22%	1.3 L/kg	43%	2.7 L/kg
COc1cc(C)c(S(=O)(=O)N(C)CCOCC(=O)N2CCC(CCN(C)C)CC2)c(C)c1	0.79 L/kg	19%	38%	0.5 L/kg	–	–
COc1cc(C)c(S(=O)(=O)N(C)CCOCC(=O)N2CCN(CC3CCN(C)CC3)CC2)c(C)c1	3.5 L/kg	16%	–	–	–	–
COc1cc(C)c(S(=O)(=O)N(C)CCOCC(=O)N(C)Cc2ccc(C3=NCCN3)cc2)c(C)c1 [SAFOTIBANT]	1.4 L/kg	0.3%	12%	2.6 L/kg	–	–
